# According to patent US10953115B2, “Production of sterile active pharmaceutical ingredients” (Icrom S.R.L., priority 2012, dated 2021):
# How the values were obtained:
# [1] = stated as reason why sterile filtration is not achievable; cited from earlier work
# [2] = Appearance and related substances (USP Brinzolamide monograph) after gamma-ray sterilisation; assay type: physicochemical
# Procedure: All the analysis were performed according to USP Brinzolamide monograph, sterility and bioburden test were performed according to Eur. Ph. and USP.
# Two related substances (impurities) are described in the USP monograph: Impurity A and Impurity B.
# The material was tested according to USP, details about appearance of the powder, related substances and sterility were given in Table 1.
# The material was tested according to USP, details about appearance of the powder, related substances and sterility were given in Table 2.
# The material was tested according to USP, details about appearance of the powder, related substances and sterility were given in Table 3.
# The material was tested according to USP, details about appearance of the powder, related substances and sterility were given in Table 4.
# The material was tested according to USP, details about appearance of the powder, related substances and sterility were given in Table 5.
# [3] = micronised, LDPE liner in double barrier foil (no vacuum), 25 KGy, RT
# [4] = micronised, packed under vacuum, 25 KGy, RT
# [5] = micronised, under vacuum and helium, 25 KGy, −78° C.
# [6] = micronised, under vacuum and nitrogen, 25 KGy, −78° C.
# [7] = not-micronized, LDPE liner in barrier foil, 10 KGy, RT
# [8] = not-micronized, LDPE liner in barrier foil, 15 KGy, RT
# [9] = not-micronized, LDPE liner in barrier foil, 20 KGy, RT
# [10] = not-micronized, LDPE liner in barrier foil, 25 KGy, RT
compound,measurement,setting,value
CCN[C@H]1CN(CCCOC)S(=O)(=O)c2sc(S(N)(=O)=O)cc21 [Brinzolamide],Solubility,[1],poor solubility
same,Compliance with USP specifications,"[2]; Example 1: not-micronized, 10, 15, 20 and 25 KGy, RT",complies with the USP specifications apart the appearance of the powder in the 20 and 25 KGy trials
same,Compliance with USP specification,"[2]; Example 2: micronised, no vacuum, 25 KGy, RT",does not complies with USP specification
same,Compliance with USP specification,"[2]; Example 3: micronised, under vacuum, 25 KGy, RT",complies with USP specification
same,Compliance with USP specification,"[2]; Example 4: micronised, under vacuum and nitrogen, 25 KGy, −78° C.",complies with USP specification
same,Compliance with USP specification,"[2]; Example 5: micronised, under vacuum and helium, 25 KGy, −78° C.",complies with USP specification
same,Appearance,[2]; [3],Almost White powder
same,Impurity A,[2]; [3],Not detected
same,Impurity B,[2]; [3],0.29%
same,Impurity C,[2]; [3],<0.05%
same,Impurity D,[2]; [3],0.62%
same,Total Impurities,[2]; [3],1.4%
same,Appearance,[2]; [4],White powder
same,Impurity A,[2]; [4],Not detected
same,Impurity B,[2]; [4],0.09%
same,Impurity C,[2]; [4],<0.05%
same,Impurity D,[2]; [4],0.30%
same,Total Impurities,[2]; [4],0.6%
same,Appearance,[2]; [5],White powder
same,Impurity A,[2]; [5],Not detected
same,Impurity B,[2]; [5],0.06%
same,Impurity C,[2]; [5],<0.05%
same,Impurity D,[2]; [5],0.11%
same,Total Impurities,[2]; [5],0.2%
same,Appearance,[2]; [6],White powder
same,Impurity A,[2]; [6],Not detected
same,Impurity B,[2]; [6],0.08%
same,Impurity C,[2]; [6],<0.05%
same,Impurity D,[2]; [6],0.16%
same,Total Impurities,[2]; [6],0.3%
same,Appearance,[2]; [7],White powder
same,Impurity A,[2]; [7],Not detected
same,Impurity B,[2]; [7],0.06%
same,Impurity C,[2]; [7],<0.05%
same,Impurity D,[2]; [7],0.11%
same,Total Impurities,[2]; [7],0.2%
same,Appearance,[2]; [8],White powder
same,Impurity A,[2]; [8],Not detected
same,Impurity B,[2]; [8],0.07%
same,Impurity C,[2]; [8],<0.05%
same,Impurity D,[2]; [8],0.14%
same,Total Impurities,[2]; [8],0.2%
same,Appearance,[2]; [9],Greenish powder
same,Impurity A,[2]; [9],Not detected
same,Impurity B,[2]; [9],0.10%
same,Impurity C,[2]; [9],<0.05%
same,Impurity D,[2]; [9],0.19%
same,Total Impurities,[2]; [9],0.3%
same,Appearance,[2]; [10],Greenish powder
same,Impurity A,[2]; [10],Not detected
same,Impurity B,[2]; [10],0.10%
same,Impurity C,[2]; [10],<0.05%
same,Impurity D,[2]; [10],0.21%
same,Total Impurities,[2]; [10],0.4%
